Measurements reported in publication PMC5312080 (mBio, 2017).
Values after ≈ are worked out from the molar mass of the structure shown. Values joined by “and” are separate entries in the source; they are usually repeats but may differ in a detail not shown here. Identical values can stand only once. Like-named read-outs stand apart in the source and are kept apart here.

Columns and labels:
[1] = tested on: ATP synthesis in BCG; format: cell-based, Mycobacterium bovis BCG
[2] = tested on: mycobacterial oxygen consumption; assay: Oxygen consumption, methylene blue decolorization; format: cell-based; settings: for effect of MK4 supplementation on inhibition of oxygen consumption: 400 µM MK4
[3] = tested on: M. tuberculosis H37Rv; assay: Checkerboard alamarBlue compound interaction assay; format: cell-based, Mycobacterium tuberculosis; settings: for MIC: Mycobacterium tuberculosis, H37RV, drug alone, checkerboard; for FIC category / FIC index (∑FIC): combination of the named drug with DG70
[4] = tested on: BCG; format: cell-based, Mycobacterium bovis BCG
[5] = tested on: menaquinone biosynthesis (MenG); format: cell-based, Mycobacterium bovis BCG
[6] = tested on: Francisella philomiragia; assay: microbe, parasite or virus in culture; format: cell-based
[7] = tested on: M. avium; assay: MABA MIC; format: cell-based, Mycobacterium avium subsp. avium; settings: Mycobacterium avium
[8] = tested on: M. bovis BCG; assay: microbe, parasite or virus in culture; format: cell-based; settings: Mycobacterium tuberculosis variant bovis BCG
[9] = tested on: nonreplicating M. tuberculosis; format: cell-based, Mycobacterium tuberculosis; settings: for reduction of CFU: 7 days, M. tuberculosis starved 6 weeks in PBS
[10] = tested on: A. baumanii; assay: MABA MIC; format: cell-based; settings: Acinetobacter baumannii
[11] = tested on: S. epidemis 14490; assay: MABA MIC; format: cell-based; settings: Staphylococcus epidermidis
[12] = tested on: Brucella neotomae; assay: microbe, parasite or virus in culture; format: cell-based
[13] = tested on: PcydAB promoter (cydAB operon) reporter; format: cell-based, Mycobacterium bovis BCG
[14] = tested on: nontuberculous mycobacteria (NTM); assay: organism not typed; format: cell-based
[15] = tested on: S. aureus MRSA; assay: MABA MIC; format: cell-based; settings: Staphylococcus aureus
[16] = tested on: M. marinum; assay: MABA MIC; format: cell-based; settings: Mycobacterium marinum
[17] = in vitro; settings: mouse, microsomes
[18] = tested on: BCG overexpressing menG_F118L; format: cell-based; settings: 20 µg/ml of DG70, 7 days, CFU
[19] = tested on: BCG::pMV306PHsp60 strains overexpressing menG; format: cell-based, Mycobacterium bovis BCG
[20] = tested on: Bacillus cereus; assay: MABA MIC; format: cell-based
[21] = tested on: Legionella pneumophila; assay: microbe, parasite or virus in culture; format: cell-based
[22] = tested on: M. tuberculosis mc^26206 in J774A.1 murine macrophages; format: cell-based; settings: J774A.1 macrophages, 3 days, concentrations equivalent to in vitro MIC
[23] = tested on: Klebsiella pneumoniae; assay: MABA MIC; format: cell-based
[24] = tested on: Yersinia pseudotuberculosis; assay: microbe, parasite or virus in culture; format: cell-based
[25] = tested on: E. faecium; assay: MABA MIC; format: cell-based; settings: Enterococcus faecium
[26] = tested on: M. abcessus; assay: MABA MIC; format: cell-based, Mycobacterium abscessus; settings: Mycobacteroides abscessus
[27] = tested on: E. cloacae; assay: MABA MIC; format: cell-based; settings: Enterobacter cloacae
[28] = tested on: Burkholderia cepacia; assay: MABA MIC; format: cell-based
[29] = tested on: M. tuberculosis H37Rv; assay: Microdilution alamarBlue assay (MABA) MIC; format: cell-based; settings: Mycobacterium tuberculosis
[30] = in vitro; settings: African green monkey
[31] = tested on: M. fortuitum; assay: MABA MIC; format: cell-based, Mycobacterium fortuitum; settings: Mycolicibacterium fortuitum
[32] = tested on: Pseudomonas aeruginosa; assay: MABA MIC; format: cell-based
[33] = tested on: M. smegmatis; assay: MABA MIC; format: cell-based, Mycobacterium smegmatis; settings: Mycolicibacterium smegmatis
[34] = tested on: menaquinone biosynthesis (MenG); format: cell-based, Mycobacterium bovis BCG; remark: listed apart in the source
[35] = FIC of the anti-TB drug in combination with DG70
[36] = anti-TB drug in combination with DG70
[37] = Table S2, parent H37Rv, read-out: MIC in Mtb H37Rv
[38] = whole-cell activity versus M. tuberculosis, […], read-out: MIC

In the case of `COc1nc2ccc(Br)cc2cc1[C@@H](c1ccccc1)[C@@](O)(CCN(C)C)c1cccc2ccccc12` [BDQ, bedaquiline], the “effect of MK4 supplementation on inhibition of ATP synthesis” value [1] is reported as “failed to reverse”, the “effect of MK4 supplementation on inhibition of oxygen consumption” value [2] is reported as “failed to reverse” and the FIC [3, 35] is reported as 0.4. The MIC [3] was 0.39 µM, the “MIC In combination” value [3, 36] was 0.16 µM and the FIC category [3] was “synergistic (≤0.5, synergistic)”. The “FIC index (∑FIC)” value [3] was 0.5, the “killing (drop in CFU) over 21 days” value [4] was 5 log10 and the “killing in 4 days” value [4] was “less than 1 log10”. For the same compound, the “time of treatment to sterile cultures (no CFU detected)” value [4] was 21 days and the “[14C]methyl incorporation into menaquinone” value [5] was “no such effect”.
Compound `COc1ccc(-c2cc(NC(=O)c3ccc(F)cc3Cl)ccc2OC)cc1` [DG70, 2-chloro-N-(4',6-dimethoxy-[1,1'-biphenyl]-3-yl)-4-fluorobenzamide] has an MIC [6] greater than 40 µg/mL, an MIC [7] greater than 40 µg/mL and an MIC [8] of 2.4 µg/mL (≈ 6.22 µM). The “effect of MK4 on killing of nutrient-deprived M. tuberculosis” value ([9]; 400 µM MK4) was “reversed”, the “reduction of CFU” value ([9]; 5× MIC) was 4 log10 and the “reduction of CFU” value ([9]; 10× MIC) was 6.5 log10. For the same compound, the “effect of MK4 supplementation on inhibition of ATP synthesis” value [1] was “rescued”, the “intracellular ATP levels” value [1] was “significant decrease in ATP levels” and the MIC [10] was greater than 20 µg/mL. For the same compound, the MIC [11] was greater than 20 µg/mL, the MIC [12] was greater than 40 µg/mL and the “oxygen consumption (methylene blue decolorization at 665 nm)” value [2] was “strongly prevented decolorization of methylene blue”. The “effect of MK4 supplementation on inhibition of oxygen consumption” value [2] was “rescued”, the “peak PcydAB induction” value [13] was 3.1 fold and the “MIC In combination” value ([3]; DG70 in combination with BDQ) was 1.5 µM. The “MIC In combination” value ([3]; DG70 in combination with EMB) was 1.5 µM, the “MIC In combination” value ([3]; DG70 in combination with INH) was 3.12 µM and the “MIC In combination” value ([3]; DG70 in combination with PA824) was 0.35 µM. For the same compound, the “MIC In combination” value ([3]; DG70 in combination with RIF) was 3.1 µM, the “MIC In combination” value ([3]; DG70 in combination with THZ) was 3.12 µM and the FIC ([3]; FIC of DG70 in combination with BDQ) was 0.1. It also gave an FIC ([3]; FIC of DG70 in combination with EMB) of 0.12, an FIC ([3]; FIC of DG70 in combination with INH) of 0.2 and an FIC ([3]; FIC of DG70 in combination with PA824) of 0.03. It also gave an FIC ([3]; FIC of DG70 in combination with RIF) of 0.25, an FIC ([3]; FIC of DG70 in combination with THZ) of 0.2 and an MIC [3] of 12.5 µM. For the same compound, the MIC [14] was greater than 100 µM, the “activity against NTM and other bacteria” value [14] was “lacked activity” and the MIC [15] was greater than 20 µg/mL. For the same compound, the MIC [16] was greater than 40 µg/mL, the microsomal CLint [17] was 921 µL/min/mg and the “growth inhibition of strain overexpressing menG_F118L” value [18] was “completely resistant”. For the same compound, the “increase of DG70 MIC on overexpression of menG” value [19] was 4 ×, the MIC [20] was greater than 40 µg/mL and the “effect of MK4 pretreatment on bactericidal activity” value [4] was “could be reversed”. The “killing (drop in CFU) over 21 days” value [4] was 5 log10, the “killing in 4 days” value [4] was “less than 1 log10” and the “reduction of cultures after 2 days of treatment” value [4] was no more than 1 log10. The MIC [21] was greater than 40 µg/mL, the “intracellular M. tuberculosis growth in macrophages” value [22] was “inhibited intracellular M. tuberculosis growth” and the MIC [23] was greater than 20 µg/mL. The MIC [24] was greater than 40 µg/mL, the “[14C]methyl incorporation into menaquinone” value [5] was “complete suppression” and the MIC [25] was greater than 20 µg/mL. For the same compound, the MIC [26] was greater than 40 µg/mL, the MIC [27] was greater than 20 µg/mL and the MIC [28] was greater than 40 µg/mL. It also gave an MIC90 ([29]; H37Rv + 400 µM MK4, read-out: MIC90) of 9.6 µg/mL, an MIC90 ([29]; H37Rv, lab strain, […], read-out: MIC90) of 4.8 µg/mL (≈ 12.4 µM) and an MIC ([29]; M. tuberculosis (Table S1), read-out: MIC) of 4.8 µg/mL (≈ 12.4 µM). The MIC [29, 37] was 2.4 µg/mL (≈ 6.22 µM), the MIC [29, 38] was 2.4 µg/mL (≈ 6.22 µM) and the CC50 ([30]; 50% cytotoxic concentration (CC50), Vero cells) was greater than 77 µg/mL. The CC50 ([30]; CC50, Vero cells, 48 h, MTT) was greater than 80 µg/mL, the MIC [31] was greater than 40 µg/mL and the MIC [32] was greater than 20 µg/mL. It also gave an MIC [33] greater than 40 µg/mL.
For `CC[C@@H](CO)NCCN[C@@H](CC)CO` [EMB, ethambutol], the FIC [3, 35] was 0.5, the MIC [3] was 6.25 µM and the “MIC In combination” value [3, 36] was 3.12 µM. The FIC category [3] was “additive (>0.5 to ≤1, additive)” and the “FIC index (∑FIC)” value [3] was 0.6.
In the case of `NNC(=O)c1ccncc1` [INH, isoniazid], the MIC90 [8] is reported as 0.05 µg/mL (≈ 0.365 µM), the “day by which cultures were completely sterilized” value [9] is reported as no more than 10 days and the “oxygen consumption (methylene blue decolorization at 665 nm)” value [2] is reported as “clearly decolorized methylene blue”. The FIC [3, 35] was 0.2, the MIC [3] was 0.39 µM and the “MIC In combination” value [3, 36] was 0.09 µM. For the same compound, the FIC category [3] was “synergistic (≤0.5, synergistic)”, the “FIC index (∑FIC)” value [3] was 0.4 and the MK9/DMK9 [34] was 3.8 and 2.9. The regrowth after [4] was 7 days, the “time of treatment to sterile cultures (no CFU detected)” value [4] was 10 days and the “[14C]methyl incorporation into menaquinone” value [5] was “no such effect”. The MIC90 [29] was 0.05 µg/mL (≈ 0.365 µM).
In the case of `COc1ccc(-c2cccc(NC(=O)c3ccc(F)cc3Cl)c2)cc1` [JSF-2907], the MIC [29, 37] is reported as greater than 77 µg/mL, the MIC [29, 38] is reported as greater than 77 µg/mL and the CC50 [30] is reported as 50 µg/mL (≈ 141 µM).
Compound `COc1ccc(-c2cc(NC(=O)c3ccccc3Cl)ccc2OC)cc1` [JSF-2908] has an MIC [29, 37] of 4.8 µg/mL (≈ 13 µM), an MIC [29, 38] of 4.8 µg/mL (≈ 13 µM) and a CC50 [30] of 50 µg/mL (≈ 136 µM).
`COc1ccc(-c2cc(NC(=O)c3ccc(F)cc3)ccc2OC)cc1` [JSF-2909] gave an MIC [29, 37] greater than 77 µg/mL, an MIC [29, 38] greater than 77 µg/mL and a CC50 [30] greater than 50 µg/mL.
In the case of `O=C(Nc1cccc(-c2ccccc2)c1)c1ccc(F)cc1Cl` [JSF-2910], the MIC [29, 37] is reported as 9.6 µg/mL (≈ 29.5 µM), the MIC [29, 38] is reported as 9.6 µg/mL (≈ 29.5 µM) and the CC50 [30] is reported as greater than 50 µg/mL.
